Data taken from patent publication US20230139171A1 (SITA Information Networking Computing UK Limited, priority 2019, published 2023).

What was measured:
Assay type in all cases: cell-based
human TLR7 = target: T1, human TLR7 (Homo sapiens, UniProt Q9NYK1); experiment: TLR7 inhibition reporter assay (HEK-Blue cells, SEAP reporter, gardiquimod stimulation); details: HEK-Blue cells overexpressing human TLR7, SEAP reporter, gardiquimod 7.5 μM; read-out: TLR7 IC50
T1 construct: host or cells: HEK-Blue cells
T1 sequence (Q9NYK1 27-1049): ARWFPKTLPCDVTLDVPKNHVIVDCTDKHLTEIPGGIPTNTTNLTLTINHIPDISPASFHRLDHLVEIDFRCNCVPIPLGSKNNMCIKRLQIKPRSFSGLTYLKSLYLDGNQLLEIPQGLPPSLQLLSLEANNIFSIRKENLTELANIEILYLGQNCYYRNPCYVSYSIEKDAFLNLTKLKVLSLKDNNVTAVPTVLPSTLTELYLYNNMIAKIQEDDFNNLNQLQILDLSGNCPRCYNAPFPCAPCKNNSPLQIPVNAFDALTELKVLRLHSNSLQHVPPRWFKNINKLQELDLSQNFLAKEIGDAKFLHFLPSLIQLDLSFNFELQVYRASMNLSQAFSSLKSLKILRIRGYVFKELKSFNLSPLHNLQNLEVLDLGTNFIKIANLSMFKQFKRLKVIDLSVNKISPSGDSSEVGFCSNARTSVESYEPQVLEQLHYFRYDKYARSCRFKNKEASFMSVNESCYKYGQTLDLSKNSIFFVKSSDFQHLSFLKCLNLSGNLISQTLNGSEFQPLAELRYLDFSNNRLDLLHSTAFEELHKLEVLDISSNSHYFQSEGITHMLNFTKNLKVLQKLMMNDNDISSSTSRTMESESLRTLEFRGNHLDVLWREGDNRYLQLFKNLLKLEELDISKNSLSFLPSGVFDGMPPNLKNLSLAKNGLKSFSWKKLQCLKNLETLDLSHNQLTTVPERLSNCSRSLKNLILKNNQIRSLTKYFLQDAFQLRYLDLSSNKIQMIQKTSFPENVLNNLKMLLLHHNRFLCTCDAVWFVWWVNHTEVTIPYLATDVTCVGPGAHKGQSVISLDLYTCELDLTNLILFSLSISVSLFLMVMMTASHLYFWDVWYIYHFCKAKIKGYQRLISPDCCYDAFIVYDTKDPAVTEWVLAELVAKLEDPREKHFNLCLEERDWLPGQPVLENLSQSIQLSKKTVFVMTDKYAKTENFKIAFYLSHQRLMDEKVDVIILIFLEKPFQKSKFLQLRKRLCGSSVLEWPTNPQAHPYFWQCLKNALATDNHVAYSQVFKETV
Outline: (§1)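 Human TLR7/8/9 HEK-Blue reporter lines; dose range 0.05 nM–50 μM; 30 min RT preincubation; stimulus gardiquimod 7.5 μM / R848 15.9 μM / ODN2006 5 nM respectively; 22 h, 37 °C; SEAP detected colorimetrically.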

human TLR8 = target: T2, human TLR8 (Homo sapiens, UniProt Q9NR97); experiment: TLR8 inhibition reporter assay (HEK-Blue cells, SEAP reporter, R848 stimulation); details: HEK-Blue cells overexpressing human TLR8, SEAP reporter, R848 15.9 μM; read-out: TLR8 IC50
T2 construct: host or cells: HEK-Blue cells
T2 sequence (Q9NR97 27-1041): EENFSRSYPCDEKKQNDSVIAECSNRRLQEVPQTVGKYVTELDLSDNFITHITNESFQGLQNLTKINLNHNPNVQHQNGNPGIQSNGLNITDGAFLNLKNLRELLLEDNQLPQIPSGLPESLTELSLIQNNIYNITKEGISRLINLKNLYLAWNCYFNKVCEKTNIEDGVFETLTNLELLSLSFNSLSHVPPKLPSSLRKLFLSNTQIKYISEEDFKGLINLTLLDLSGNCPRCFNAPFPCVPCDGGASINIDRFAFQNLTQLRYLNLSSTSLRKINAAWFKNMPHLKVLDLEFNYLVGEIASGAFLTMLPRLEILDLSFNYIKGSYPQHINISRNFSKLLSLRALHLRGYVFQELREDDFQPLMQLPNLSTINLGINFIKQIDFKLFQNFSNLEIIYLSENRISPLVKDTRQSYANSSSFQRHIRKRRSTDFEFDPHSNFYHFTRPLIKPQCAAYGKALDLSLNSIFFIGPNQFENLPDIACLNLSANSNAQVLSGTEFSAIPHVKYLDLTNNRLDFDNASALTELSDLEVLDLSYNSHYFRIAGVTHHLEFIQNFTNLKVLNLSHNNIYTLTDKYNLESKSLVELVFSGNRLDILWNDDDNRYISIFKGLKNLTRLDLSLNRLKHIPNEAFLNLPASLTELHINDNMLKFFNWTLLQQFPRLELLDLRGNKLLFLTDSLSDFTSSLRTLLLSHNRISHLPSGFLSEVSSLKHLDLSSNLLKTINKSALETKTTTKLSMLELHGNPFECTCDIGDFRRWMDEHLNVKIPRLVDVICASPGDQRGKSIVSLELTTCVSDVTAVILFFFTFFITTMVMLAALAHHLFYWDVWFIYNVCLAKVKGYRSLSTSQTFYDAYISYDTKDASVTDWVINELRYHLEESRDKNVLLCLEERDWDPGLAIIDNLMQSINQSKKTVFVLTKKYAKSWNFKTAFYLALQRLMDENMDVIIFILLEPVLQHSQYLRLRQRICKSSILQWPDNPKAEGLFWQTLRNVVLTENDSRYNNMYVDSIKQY
Outline: as §1

human TLR9 = target: T3, human TLR9 (Homo sapiens, UniProt Q9NR96); experiment: TLR9 inhibition reporter assay (HEK-Blue cells, SEAP reporter, ODN2006 stimulation); details: HEK-Blue cells overexpressing human TLR9, SEAP reporter, ODN2006 5 nM
T3 construct: host or cells: HEK-Blue cells
T3 sequence (Q9NR96 26-1032): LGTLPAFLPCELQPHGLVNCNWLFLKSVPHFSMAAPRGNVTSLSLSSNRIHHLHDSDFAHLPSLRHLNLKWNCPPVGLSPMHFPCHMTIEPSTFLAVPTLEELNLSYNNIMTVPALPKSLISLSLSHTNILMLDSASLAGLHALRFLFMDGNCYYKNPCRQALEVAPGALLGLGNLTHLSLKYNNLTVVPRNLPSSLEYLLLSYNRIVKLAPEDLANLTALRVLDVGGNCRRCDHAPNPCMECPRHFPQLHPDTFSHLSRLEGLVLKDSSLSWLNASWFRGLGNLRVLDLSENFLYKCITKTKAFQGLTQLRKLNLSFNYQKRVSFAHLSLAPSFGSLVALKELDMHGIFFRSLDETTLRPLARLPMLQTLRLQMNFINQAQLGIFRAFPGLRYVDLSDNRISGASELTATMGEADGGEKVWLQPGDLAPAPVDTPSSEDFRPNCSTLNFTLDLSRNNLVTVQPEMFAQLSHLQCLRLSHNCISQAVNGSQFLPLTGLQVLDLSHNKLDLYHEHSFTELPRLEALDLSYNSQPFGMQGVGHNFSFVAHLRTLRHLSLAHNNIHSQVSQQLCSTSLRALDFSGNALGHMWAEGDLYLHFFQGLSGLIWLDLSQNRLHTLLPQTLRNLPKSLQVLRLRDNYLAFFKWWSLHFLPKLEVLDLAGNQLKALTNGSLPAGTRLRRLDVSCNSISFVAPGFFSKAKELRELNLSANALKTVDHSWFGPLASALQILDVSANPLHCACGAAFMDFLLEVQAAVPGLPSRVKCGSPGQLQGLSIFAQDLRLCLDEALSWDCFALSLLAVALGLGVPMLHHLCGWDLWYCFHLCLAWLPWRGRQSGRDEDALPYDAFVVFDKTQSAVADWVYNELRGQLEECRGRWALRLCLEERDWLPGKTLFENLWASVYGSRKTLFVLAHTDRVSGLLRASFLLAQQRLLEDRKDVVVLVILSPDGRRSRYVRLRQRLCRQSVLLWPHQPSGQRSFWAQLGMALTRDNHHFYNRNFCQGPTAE
Outline: as §1

IC50 (human TLR7) [nM] | IC50 (human TLR8) [nM] | IC50 (human TLR9) [nM] | SMILES
26.8 | 22.9 | 22000 | Cc1c(-c2[nH]c3sc(C4CCC(N5CC(O)C5)CC4)nc3c2C(C)C)cn(C)c(=O)c1C (single isomer, unassigned) [Example 264, 5-(2-(4-(3-hydroxyazetidin-1-yl)cyclohexyl)-6-isopropyl-4H-pyrrolo[3,2-d]thiazol-5-yl)-1,3,4-trimethylpyridin-2(1H)-one]
14 | 3.29 | 47700 | Cc1c(-c2[nH]c3sc(C4CCC(N5CC(F)C5)CC4)nc3c2C(C)C)cn(C)c(=O)c1C (single isomer, unassigned) [Example 265, 5-(2-(4-(3-fluoroazetidin-1-yl)cyclohexyl)-6-isopropyl-4H-pyrrolo[3,2-d]thiazol-5-yl)-1,3,4-trimethylpyridin-2(1H)-one]
119 | 60.2 | > 50000 | Cc1c(-c2[nH]c3sc(C4CCC(N5CC(F)C5)CC4)nc3c2C(C)C)cn(C)c(=O)c1C (single isomer, unassigned) [Example 266, 5-(2-(4-(3-fluoroazetidin-1-yl)cyclohexyl)-6-isopropyl-4H-pyrrolo[3,2-d]thiazol-5-yl)-1,3,4-trimethylpyridin-2(1H)-one]
24.3 | 7.16 | > 50000 | Cc1c(-c2[nH]c3sc(C4CCC(N5CC(O)(C(F)(F)F)C5)CC4)nc3c2C(C)C)cn(C)c(=O)c1C (single isomer, unassigned) [Example 267, 5-(2-(4-(3-hydroxy-3-(trifluoromethyl)azetidin-1-yl)cyclohexyl)-6-isopropyl-4H-pyrrolo[3,2-d]thiazol-5-yl)-1,3,4-trimethylpyridin-2(1H)-one]

Further lines, the molecule ahead of its results:

SMILES | IC50 (human TLR7) [nM] | IC50 (human TLR8) [nM] | IC50 (human TLR9) [nM]
Cc1c(-c2[nH]c3sc(C4CCC(N5CCNC(=O)C5)CC4)nc3c2C(C)C)cn(C)c(=O)c1C (single isomer, unassigned) [Example 259, 4-(4-(6-isopropyl-5-(1,4,5-trimethyl-6-oxo-1,6-dihydropyridin-3-yl)-4H-pyrrolo[3,2-d]thiazol-2-yl)cyclohexyl)piperazin-2-one] | 23.5 | 13.8 | > 50000
Cc1c(-c2[nH]c3sc(C4CCC(N5CCNC(=O)C5)CC4)nc3c2C(C)C)cn(C)c(=O)c1C (single isomer, unassigned) [Example 260, 4-(4-(6-isopropyl-5-(1,4,5-trimethyl-6-oxo-1,6-dihydropyridin-3-yl)-4H-pyrrolo[3,2-d]thiazol-2-yl)cyclohexyl)piperazin-2-one] | 170 | 138 | > 50000
Cc1c(-c2[nH]c3sc(C4CCC(N(C)C(C)C)CC4)nc3c2C(C)C)cn(C)c(=O)c1C (single isomer, unassigned) [Example 261, 5-(6-isopropyl-2-(4-(isopropyl(methyl)amino)cyclohexyl)-4H-pyrrolo[3,2-d]thiazol-5-yl)-1,3,4-trimethylpyridin-2(1H)-one] | 8.43 | 2.26 | 17100
Cc1c(-c2[nH]c3sc(C4CCC(N(C)C(C)C)CC4)nc3c2C(C)C)cn(C)c(=O)c1C (single isomer, unassigned) [Example 262, 5-(6-isopropyl-2-(4-(isopropyl(methyl)amino)cyclohexyl)-4H-pyrrolo[3,2-d]thiazol-5-yl)-1,3,4-trimethylpyridin-2(1H)-one] | 23.8 | 17.5 | 18300
Cc1c(-c2[nH]c3sc(C4CCC(N5CC(O)C5)CC4)nc3c2C(C)C)cn(C)c(=O)c1C (single isomer, unassigned) [Example 263, 5-(2-(4-(3-hydroxyazetidin-1-yl)cyclohexyl)-6-isopropyl-4H-pyrrolo[3,2-d]thiazol-5-yl)-1,3,4-trimethylpyridin-2(1H)-one] | 4.74 | 4.48 | 18100
